In publication PMC8424217 (The Journal of Biological Chemistry, 2021):
Peptide text beside a SMILES is read from it. * marks the point of attachment. Palmitoyl = CCCCCCCCCCCCCCCC(=O)*

Columns and labels:
[1] = test system: rat neonatal cardiac fibroblasts; assay: Rat cardiac neonatal fibroblast proliferation, high content imaging; format: cell-based; details: 10^−6 M, 24 h, three independent experiments in triplicate
Source text: Each bar corresponds to the mean ± SEM obtained from three independent experiments conducted in triplicate.
Neonatal cardiac rat fibroblasts, endogenously expressing UT ([82]), were obtained from 1–3-day-old Sprague-Dawley pups as previously reported ([83]). Briefly, hearts obtained from neonatal rats were enzyme-digested and after centrifugation, cells were preplated to separate cardiomyocytes from fibroblasts. As reported, the adherent nonmyocyte fractions correspond predominantly to fibroblasts while the supernatants largely contain the cardiomyocytes. After several washes, attached fibroblasts were trypsinized and then cultured at 37 °C in 96-well plate (6000 cells per well) in low glucose-DMEM supplemented with 7% FBS, 100 units/ml of penicillin, and 100 μg/ml of streptomycin. After 48 h, cells were washed twice with low glucose-DMEM, and starved for 12 h in this medium. […] Cells are incubated with primary anti-smooth muscle α-actin antibody (1/500) in 10% horse serum/PBS overnight at 4 °C and later with secondary anti-rabbit Alexa Fluor 488 (1/1000) for 1 h at RT. Cell staining was performed using cell mask (1 μg mL^−1) in PBS for 30 min at room temperature and with Hoechst dye in PBS (1 μg/ml) for 10 min. Analysis was performed on an Opera Phoenix High Content Imaging System with a 20× water objective.

hUT = target: T1, hUT (Homo sapiens, UniProt Q9UKP6); assay: β-arrestin 1 conformational change, BRET biosensor, HEK 293-hUT cells; format: cell-based; set-up: expressed in transfected cells; details: for Emax: percentage of the activation induced by hUII (10^−6 M), n = 3–5
T1 sequence (Q9UKP6 1-389): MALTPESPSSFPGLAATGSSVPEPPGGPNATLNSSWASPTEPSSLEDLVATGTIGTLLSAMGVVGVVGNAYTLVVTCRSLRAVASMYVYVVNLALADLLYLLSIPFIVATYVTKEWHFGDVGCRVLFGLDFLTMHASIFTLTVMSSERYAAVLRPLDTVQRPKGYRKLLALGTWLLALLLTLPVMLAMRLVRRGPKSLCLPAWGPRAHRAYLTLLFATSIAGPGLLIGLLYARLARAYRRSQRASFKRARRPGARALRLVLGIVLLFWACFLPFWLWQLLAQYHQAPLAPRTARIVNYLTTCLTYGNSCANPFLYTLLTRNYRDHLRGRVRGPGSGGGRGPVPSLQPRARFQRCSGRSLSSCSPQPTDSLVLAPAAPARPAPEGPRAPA
Description: Figure 6 Signaling signature of hUT-pepducins following hUT receptor activation. […] Each curve represents mean ± SEM of at least three independent concentration-response experiments performed in triplicate.
HEK 293-hUT cells were grown in DMEM culture media supplemented with 10% foetal bovine serum, HEPES, sodium pyruvate, and G418 (200 μg mL^−1). Passages were performed when cells reached 80% of confluency. Cells were initially plated in 96-well plates at a density of 10,000 cells/well. The following day, the medium is replaced with DMEM culture media supplemented with 2.5% foetal bovine serum (FBS), and 12 h later, cells were transiently transfected with 25 ng/well of a Gq-polycistronic, 25 ng/well of a G12-polycistronic BRET sensor, 25 ng/well of a G13-polycistronic BRET sensor, 2.5 ng/well pIRESB RLucII-ERK-NLS-GFP BRET sensor, 2.5 ng β-arrestin 1-polycistronic BRET sensor, or 2.5 ng β-arrestin 2-polycistronic BRET sensor using Lipofectamine2000 at a ratio of 3:1 (Lipofectamine/plasmid DNA) in serum-free Opti-MEM ([44], [81]). Sixteen hours posttransfection, medium was replaced with DMEM supplemented with 10% FBS, HEPES, sodium pyruvate and G418 (200 μg mL^−1) and cell growth was resumed for another 16 h. Cells were washed with 150 μl PBS solution supplemented with 0.1% of glucose and then incubated with 80 μl of this solution for 2 h. Then, to evaluate Gq and G12 activation, 10 μl of a 1/20 dilution (diluted before use) of coelenterazine 400A (stock at 1 mM in ethanol) in Kreb's buffer and 10 μl of the 10× appropriate concentration of peptide were added, and the luminescence was evaluated with an Infinite M1000 PRO. […] Readings were performed after 5 min using an Infinite M1000 PRO. Filters were set at 410 nm and 515 nm for detecting the Renilla luciferase II (RlucII, donor) and green fluorescent protein 10 (GFP10, acceptor) light emission, respectively. BRET ratio was determined by calculating the ratio of the light emitted by GFP10 over the light emitted by the RlucII.

rat thoracic aorta rings = target: T2, rat thoracic aorta rings (Rattus norvegicus, UniProt P49684); assay: Rat aortic ring contraction (agonist); details: for contraction at 10 μM: n = 5; for contraction pEC50: n = 22 (hUII, URP), n = 5 (pepducins)
T2 sequence (P49684 1-386): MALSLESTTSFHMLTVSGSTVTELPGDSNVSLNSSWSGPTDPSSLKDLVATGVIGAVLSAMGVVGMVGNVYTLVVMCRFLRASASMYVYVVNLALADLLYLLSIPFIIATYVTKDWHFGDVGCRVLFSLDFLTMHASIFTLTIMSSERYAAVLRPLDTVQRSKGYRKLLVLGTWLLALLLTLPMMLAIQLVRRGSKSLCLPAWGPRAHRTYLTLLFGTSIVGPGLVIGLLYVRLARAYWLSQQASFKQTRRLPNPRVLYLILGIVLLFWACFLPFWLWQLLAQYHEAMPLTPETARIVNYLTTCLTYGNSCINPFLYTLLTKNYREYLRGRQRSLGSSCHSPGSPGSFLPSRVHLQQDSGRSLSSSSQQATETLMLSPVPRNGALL
Description: Each replicate (n) was conducted on tissue obtained from at least three different animals. Data represent mean ± SEM.
Adult male Sprague-Dawley rats (Charles-River) weighing 250–300 g were housed in cages under controlled illumination (12:12 h light–dark cycle), humidity, and temperature (21–23 °C) and had free access to tap water and rat chow. All experimental procedures were performed in accordance with regulations and ethical guidelines from the Canadian Council for the Care of Laboratory Animals and received approvals of the institutional animal care and use committee of the Institut National de la Recherche Scientifique—Centre Armand-Frappier Santé Biotechnologie. As previously described ([17], [18]), the thoracic aorta was cleared of surrounding tissue and then excised from the aortic arch to the diaphragm. Conjunctive tissues were next removed from the thoracic aorta and the vessels were divided into five rings of 4 mm. The endothelium of each aortic ring was removed by gently rubbing the vessel intimal surface. Aortic rings were then placed in a 5 ml organ bath filled with oxygenated normal Krebs–Henseleit buffer. Eighty microliters of a 2.5 M potassium chloride solution (40 mM final concentration) was used to evaluate maximal contractile responses of each vessel. […] Cumulative concentration–response curves to synthetic peptides were obtained by increasing the concentration of each peptide in the remaining organ chambers (10^−11–10^−5 M).

[2] = percentage of contraction induced by 40 mM KCl

Emax (rat thoracic aorta rings; percentage of contraction induced by 40 mM KCl, mean ± SEM, n = 22) [%]	Structure (SMILES)	rat neonatal cardiac fibroblast proliferation [1]	EC50 (hUT; 15 min at RT, mean ± SEM, n = 3–5, read-out: β-arrestin 1 pEC50 (converted)) [nM]	Emax (hUT; 15 min at RT, mean ± SEM) [%]	contraction at 10 μM (rat thoracic aorta rings; [2]) [% @ 10 μM]	contraction pEC50 (rat thoracic aorta rings; mean ± SEM)	β-arrestin 1 activation (in words) (hUT)
	CCCCCCCCCCCCCCCC(=O)N[C@@H](Cc1c[nH]c2ccccc12)C(=O)N[C@@H](CC(C)C)C(=O)N[C@@H](CO)C(=O)N[C@@H](CCC(N)=O)C(=O)N[C@@H](CCCNC(=N)N)C(=O)N[C@@H](C)C(=O)N[C@@H](CO)C(=O)N[C@@H](Cc1ccccc1)C(=O)N[C@@H](CCCCN)C(=O)N[C@@H](CCCNC(=N)N)C(=O)N[C@@H](C)C(=O)N[C@@H](CCCNC(=N)N)C(=O)N[C@@H](CCCNC(=N)N)C(N)=O [[Trp^1, Leu^2]hUT-Pep3] (Palmitoyl-WLSQRASFKRARR-NH2)	proliferative action in rat neonatal cardiac fibroblasts similar to what was observed with hUII	8.32	~18	16	<5	
102 ± 3	CC(C)[C@H](NC(=O)[C@@H]1CSSC[C@H](NC(=O)[C@H](CC(=O)O)NC(=O)[C@@H]2CCCN2C(=O)[C@@H](NC(=O)[C@@H](N)CCC(=O)O)[C@@H](C)O)C(=O)N[C@@H](Cc2ccccc2)C(=O)N[C@@H](Cc2c[nH]c3ccccc23)C(=O)N[C@@H](CCCCN)C(=O)N[C@@H](Cc2ccc(O)cc2)C(=O)N1)C(=O)O [hUII, urotensin II, reference compound]	proliferative action in rat neonatal cardiac fibroblasts similar to what was observed with hUII		104 ± 4		8.64 ± 0.09	
	CCCCCCCCCCCCCCCC(=O)N[C@@H](CCCNC(=N)N)C(=O)N1CCC[C@H]1C(=O)N[C@@H](CC(C)C)C(=O)N[C@@H](CC(=O)O)C(=O)N[C@H](C(=O)N[C@H](C(=O)N[C@@H](CCC(N)=O)C(=O)N[C@@H](CCCNC(=N)N)C(=O)N1CCC[C@H]1C(=O)N[C@@H](CCCCN)C(=O)NCC(=O)N[C@@H](Cc1ccc(O)cc1)C(N)=O)C(C)C)[C@@H](C)O [hUT-Pep2] (Palmitoyl-RPLDTVQRPKGY-NH2)	proliferative action in rat neonatal cardiac fibroblasts similar to what was observed with hUII			7	<5	inactive
